Where two headings read alike, the source gives them in different places.
Assays:
hSTINGmut [1] = biological target: T1, hSTINGmut (Homo sapiens, UniProt Q86WV6, G230I/H232R/Q266I/S162A); assay: Time-course expression of STING-derived cytokines upon DMXAA treatment (qPCR); type: cell-based; details: MC38 and Hep2G cells encoding hSTINGmut; 50 μg/mL DMXAA; any given timepoint
T1 construct: expressed in transfected cells
Procedure: The objective of this experiment was to examine the time-course of STING-derived cytokine expression upon DMXAA treatment. As a readout, the expression of STING-derived cytokines was measured by qPCR.
To this end, stable cell lines of MC38 and Hep2G cells encoding hSTINGmut have been obtained as described above. […] Cells were harvested and prepared for qPCR measurements as described above.

human STING = human STING (Homo sapiens, UniProt Q86WV6); details: cited from earlier work
MC38 tumors = assay: Synergism of DMXAA and radiotherapy in a humanized mouse model in vivo, cytokine ELISA; parameters: species or system STING deficient C57 mice (STING KO); details: 6 h after DMXAA 20 mg/kg, irradiated tumors
MC38 cells [2] = assay: Synergism proof of principle I: IFN-β mRNA by qPCR; type: cell-based, murine; details: 8 Gy + DMXAA 50 μg/mL, without exogenic hSTINGmut
Procedure: To this end, MC38 cells received 8 Gy or 0 Gy as described above (example 7). Cells were seeded thereafter at 750 cells/mm^2 density and were then either mock-transduced or transduced with AAV8-hSTINGmut (1×10^5 viral genomes/cell). For cell transduction 8.5×10^9 viral genomes of AAV8-hSTINGmut from known concentration stock solutions, were resuspended in 50 μl RPMI 2% FBS. The resuspended viral particles were then added to the wells where the cells were seeded.

[3] = biological target: hSTING[R]-S162A/G230I/Q266I (Homo sapiens, UniProt Q86WV6, G230I/H232R/Q266I/S162A); details: cited from earlier work
[4] = test system: IFN-β protein levels in the serum
Procedure: C57 wild type mice, aged 6 to 10 weeks, were injected intravenously with an AAV8 vector encoding either hSTINGmut (AAV8-hSTINGmut, 1×10^11 viral genomes) or as a control GFP (AAV8-GFP, 1.5×10^11 viral genomes).

[5] = test system: native non-transduced MC38 cells; assay: Synergism proof of principle IV: IFN-β protein by ELISA; type: cell-based, murine
Procedure: In addition to the previous experiments, the objective of the fourth experiment was to further investigate the observed synergism between the canonical and non-canonical STING.
To this end, native non-transduced MC38 cells received 0 Gy, 2 Gy or 8 Gy as described above. […] The IFN-p protein levels were determined by ELISA as described above.

[6] = human, in vivo; cited from earlier work
MC38 cells [7] = assay: Synergism proof of principle II: IL-12 mRNA by qPCR; type: cell-based, murine; details: cells transduced with AAV8-hSTINGmut plus AAV8-ISREx4-IL12miR122T
Procedure: To this end, MC38 cells received 8 Gy or 0 Gy as described above and then were co-transduced with AAV8-hSTINGmut (1×10^5 viral genomes/cell) and AAV8-ISREx4-IL12miR122T (0.5×10^5 viral genomes/cell) as described above. For cell transduction, 8.5×10^9 viral genomes of AAV8-hSTINGmut and 4.25×10^9 viral genomes of AAV8-scIL12-miR122T, from known concentration stock solutions, were resuspended, each one, in 50 μl RPMI 2% FBS. The resuspended viral particles were then added to the wells where the cells were seeded. […] The IL-12 mRNA was determined by qPCR as described above (example 3) and expression levels were quantified in reference to non-transduced, non-irradiated cells treated with vehicle.

hSTINGmut [8] = biological target: T1, hSTINGmut; assay: DMXAA mediated expression of STING-derived cytokines (qPCR); type: cell-based; details: hSTINGmut-transduced MC38 and Hep2G cells; 50 μg/mL DMXAA, 3 h or 6 h
Procedure: (§1) As a readout, the expression of STING-derived cytokines was measured by qPCR.
(§2) To this end, MC38 and Hep2G cells have been transduced with lentiviruses encoding luciferase, hSTINGwt, hSTINGmut to obtain stable cell lines as described above or were not transduced with any lentivirus (no vector). Respective cells were seeded in 24-well plates at a density of 750 cells/mm^2 in growth medium. […] Cells were harvested and prepared for qPCR measurements as described above. The expression of the cytokines IFN-β, TNF-α, IL-6, CXCL9 and CXCL10 were measured for either experimental group and expression levels relative to controls (no vector) were quantified.

hSTINGwt = biological target: T2, hSTINGwt (Homo sapiens, UniProt Q86WV6, H232R); assay: as above; type: cell-based; details: other groups (hSTINGwt, luciferase, no vector); 50 μg/mL DMXAA
T2 construct: expressed in transfected cells
Procedure: as §1, §2

HEK293 cells = assay: Synergism proof of principle III: IFN-β and IL-12 mRNA by qPCR; type: cell-based, human; details: for IFN-β expression levels: hSTINGmut expressing cells
From the text: To this end, HEK293 cells received 8 Gy or 0 Gy as described above for MC38 cells and then were co-transduced with AAV8-hSTINGmut (1×10^5 viral genomes), AAV8-ISREx4-IL12miR122T (1×10^5 viral genomes) and/or AAV-GFP (1×10^5 viral genomes) as indicated in the figure.

murine STING = biological target: T3, murine STING (Mus musculus, UniProt Q3TBT3); details: cited from earlier work
T3 sequence (Q3TBT3 1-378): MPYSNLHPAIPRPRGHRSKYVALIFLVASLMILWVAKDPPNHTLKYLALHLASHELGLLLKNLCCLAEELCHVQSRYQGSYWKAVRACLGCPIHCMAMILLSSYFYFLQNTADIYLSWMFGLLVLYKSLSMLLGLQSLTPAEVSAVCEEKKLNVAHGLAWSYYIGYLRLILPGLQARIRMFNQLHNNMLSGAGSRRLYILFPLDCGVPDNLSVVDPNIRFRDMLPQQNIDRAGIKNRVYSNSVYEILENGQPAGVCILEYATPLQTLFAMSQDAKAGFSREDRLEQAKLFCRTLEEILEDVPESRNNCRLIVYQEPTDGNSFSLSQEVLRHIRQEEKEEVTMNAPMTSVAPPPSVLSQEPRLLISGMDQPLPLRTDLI

T1 sequence (Q86WV6 whole entry S162A/G230I/H232R/Q266I): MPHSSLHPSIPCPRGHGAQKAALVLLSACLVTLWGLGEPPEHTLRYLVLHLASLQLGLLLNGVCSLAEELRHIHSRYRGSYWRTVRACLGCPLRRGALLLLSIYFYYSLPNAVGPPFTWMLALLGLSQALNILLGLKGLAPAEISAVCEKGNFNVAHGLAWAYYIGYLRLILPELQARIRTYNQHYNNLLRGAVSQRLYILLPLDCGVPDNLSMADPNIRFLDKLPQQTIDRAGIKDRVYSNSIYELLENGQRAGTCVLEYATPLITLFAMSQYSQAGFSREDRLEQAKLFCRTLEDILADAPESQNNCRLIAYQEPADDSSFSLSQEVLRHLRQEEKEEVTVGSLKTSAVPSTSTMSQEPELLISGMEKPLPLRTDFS
T2 sequence (Q86WV6 whole entry H232R): as the sequence (Q86WV6 whole entry S162A/G230I/H232R/Q266I) above, with A162S, I230G, I266Q counted along it
Chain of human STING (Q86WV6 whole entry H232R): as the sequence (Q86WV6 whole entry S162A/G230I/H232R/Q266I) above, with A162S, I230G, I266Q counted along it
Chain of hSTING[R]-S162A/G230I/Q266I (Q86WV6 whole entry S162A/G230I/H232R/Q266I): as the sequence (Q86WV6 whole entry S162A/G230I/H232R/Q266I) above

## Cc1ccc2c(=O)c3cccc(CC(=O)O)c3oc2c1C [DMXAA, 5,6-Dimethylxanthenone-4-acetic acid]
hSTINGmut [1]
  expression of STING-derived cytokines over time: increase in expression levels
Human STING
  activation of human STING: unable to activate
MC38 tumors
  intratumor levels of IL-12: increased significantly
MC38 cells [2]
  IFN-β mRNA expression: increase in IFN-β expression
[3]
  activation of hSTING[R]-S162A/G230I/Q266I: highly activated
[4]; 20 mg DMXAA/kg bodyweight i.p., after a first injection
  serum IFN-β levels in AAV8-GFP transduced control animals: elevation
[4]; 20 mg DMXAA/kg, AAV8-hSTINGmut and AAV8-GFP mice, systemic STING stimulation
  toxicity and mortality: high toxicity and mortality
[4]; 5 or 10 mg DMXAA/kg bodyweight i.p.
  serum IFN-β levels in AAV8-hSTINGmut transduced mice: very low levels
[4]; 5 or 10 mg DMXAA/kg, AAV8-hSTINGmut transduced mice
  toxicity and mortality: neither cause significant toxicity nor mortality
[5]; 8 Gy plus DMXAA (different doses), 24 h or 48 h
  IFN-β production: exceeding the sum of those obtained with radiation alone and DMXAA alone
[5]; 8 Gy, DMXAA 50 μg/mL 24 h later, collected after another 24 h
  IFN-β production after a single dose of radiation: enhanced
[6]
  efficacy in clinical trials: lack of efficacy
  tolerability in clinical trials: well tolerated and only displayed minor side effects
MC38 cells [7]; 8 Gy
  IL-12 mRNA levels: strong elevation
MC38 cells [7]; non-irradiated
  IL-12 mRNA levels: slight elevation
hSTINGmut [8]
  expression of the cytokines IFN-β, TNF-α, IL-6, CXCL9 and CXCL10: elevated
hSTINGwt
  expression of the cytokines IFN-β, TNF-α, IL-6, CXCL9 and CXCL10: no significant alteration
HEK293 cells; ISREx4-IL12miR122T expressing cells, radiation plus further DMXAA treatment
  IL-12 expression levels: significant increase
HEK293 cells; DMXAA 50 μg/mL
  IFN-β expression levels: upregulated
HEK293 cells; DMXAA plus additional irradiation 8 Gy
  IFN-β expression levels: significantly increased

## O=C(O)Cc1cccc2c(=O)cc(-c3ccccc3)oc12 [FAA, flavone-8-acetic acid]
Murine STING
  activation of murine STING: may also be activated

— patent publication US20250186623A1, “EXPRESSION SYSTEM FOR THE TREATMENT OF CANCER” (FUNDACION PARA LA INVESTIGACION MEDICA APLICADA, priority 2022, published 2025)
